Reference: ChEMBL document CHEMBL5500403, “Discovery of a Double-Stapled Short Peptide as a Long-Acting HIV-1 Inactivator with Potential for Oral Bioavailability” (J Med Chem, 2024)
Calls of active or inactive are those of the source. The rule behind the calls is not given here. Bridge positions count the residues as written; N and C are the ends. Square brackets hold non-standard residues; d marks the D form. Peptide text beside a SMILES is read from it. S5 = C=CCCC[C@](C)(N)C(=O)O

Key:
[1] = Biodistribution in Sprague-Dawley rat spleen assessed as fold increase in AUC at 1 mg/kg,iv administration measured after 12 days by LC-MS/MS analysis; type: ADME, organism-based; conditions: in vivo, 288 h, time 12 day
[2] = Apparent permeability in human Caco-2 cells at 5 uM; type: ADME, cell-based
[3] = Biodistribution in Sprague-Dawley rat brain assessed as fold increase in AUC at 1 mg/kg,iv administration measured after 12 days by LC-MS/MS analysis; type: ADME, organism-based; conditions: in vivo, 288 h, time 12 day
[4] = Total clearance in Sprague-Dawley rat at 1 mg/kg,iv administration measured upto 9 days by LC-MS/MS analysis; type: ADME, organism-based; conditions: in vivo, time < 9 day
[5] = Toxicity in Sprague-Dawley rat assessed as change in body weight at 50 mg/kg,iv administration measured upto 14 days; type: organism-based; conditions: in vivo, 336 h, time < 14 day
[6] = system: Human immunodeficiency virus 1; assay: Antiviral activity against T20-resistant HIV-1 NL4-3 harboring […] N38A and N42T mutant infected in human MT2 cells assessed as inhibition of viral growth pretreated with virus for 30 mins followed by infection with cells incubated for 72 hrs by ELISA; type: functional, organism-based
[7] = Toxicity in Sprague-Dawley rat assessed as neural damage by measuring NeuN positive cell at 50 mg/kg,iv administration measured after 14 days; type: organism-based; conditions: in vivo, 336 h, time 14 day
[8] = Toxicity in Sprague-Dawley rat assessed as change in serum creatinine level at 50 mg/kg,iv administration measured upto 6 days; type: organism-based; conditions: in vivo, 144 h, time < 6 day
[9] = Stability in Sprague-Dawley rat liver microsomes in presence of NADPH by LC-MS/MS analysis; type: ADME, Microsome
[10] = Toxicity in female BALB/c mouse assessed as change in body weight at 20 mg/kg,iv administration measured upto 14 days; type: organism-based; conditions: in vivo, 336 h, time < 14 day
[11] = system: Human immunodeficiency virus 1; assay: Antiviral activity against T20-resistant HIV-1 NL4-3 harboring […] N42T and N43K mutant infected in human MT2 cells assessed as inhibition of viral growth pretreated with virus for 30 mins followed by infection with cells incubated for 72 hrs by ELISA; type: functional, organism-based
[12] = Plasma protein binding in human by LC-MS/MS analysis; type: ADME, cell-free; conditions: read-out: PPB (converted)
[13] = Toxicity in BALB/c mouse assessed as histopathological change in liver at 100 mg/kg,iv administration measured after 14 days by hematoxylin and eosin staining based assay; type: organism-based; conditions: in vivo, 336 h, time 14 day
[14] = system: Human immunodeficiency virus 1; assay: Antiviral activity against T20-resistant HIV-1 NL4-3 harboring […] N42T and N43K mutant assessed as reduction in viral growth by measuring p24 antigen level incubated for 2 hrs by ELISA; type: functional, organism-based
[15] = Toxicity in BALB/c mouse assessed as histopathological change in kidney at 100 mg/kg,iv administration measured after 14 days by hematoxylin and eosin staining based assay; type: organism-based; conditions: in vivo, 336 h, time 14 day
[16] = Stability in rat liver assessed as parent compound remaining at 1 ug/ml incubated for 1 hr by LC-MS/MS analysis; type: ADME, tissue-based; conditions: at 1 µg/mL, read-out: Stability
[17] = Toxicity in Sprague-Dawley rat assessed as cell degeneration in liver at 50 mg/kg,iv administration measured after 14 days by hematoxylin and eosin staining based assay; type: organism-based; conditions: in vivo, 336 h, time 14 day
[18] = Toxicity in Sprague-Dawley rat assessed as necrosis in liver at 50 mg/kg,iv administration measured after 14 days by hematoxylin and eosin staining based assay; type: organism-based; conditions: in vivo, 336 h, time 14 day
[19] = system: Human immunodeficiency virus 1; assay: Antiviral activity against HIV-1 Bal-R5 assessed as reduction in viral growth by measuring p24 antigen level incubated for 2 hrs by ELISA; type: functional, organism-based; conditions: Human immunodeficiency virus 1, Bal-R5, 2 h
[20] = Selectivity index, ratio of CC50 for cytotoxicity against human MT2 cells to IC50 for antiviral activity against HIV-1 IIIB infected in human MT2 cells; type: toxicity, cell-based; conditions: read-out: Ratio CC50/IC50
[21] = Biodistribution in Sprague-Dawley rat testis assessed as fold increase in AUC at 1 mg/kg,iv administration measured after 12 days by LC-MS/MS analysis; type: ADME, organism-based; conditions: in vivo, 288 h, time 12 day
[22] = system: Human immunodeficiency virus 1; assay: Antiviral activity against HIV-1 IIIB infected in human MT2 cells assessed as inhibition of viral growth at 5 uM preincubation of compound with 20% HSA; type: functional, organism-based
[23] = system: Human immunodeficiency virus 1; assay: Binding affinity to cytoplasmic LLP1 domain of HIV-1 GP41 assessed as change in enthalpy by isothermal titration calorimetry
[24] = MRT in Sprague-Dawley rat at 10 mg/kg,iv administration measured upto 9 days by LC-MS/MS analysis; type: ADME, organism-based; conditions: in vivo, 216 h, time < 9 day
[25] = Plasma protein binding in rat by LC-MS/MS analysis; type: ADME, cell-free; conditions: read-out: PPB (converted)
[26] = Biodistribution in Sprague-Dawley rat brain at 1 mg/kg,iv administration measured upto 12 days by LC-MS/MS analysis; type: ADME, organism-based; conditions: in vivo, 288 h, time < 12 day
[27] = system: Human immunodeficiency virus 1; assay: Binding affinity to cytoplasmic LLP1 domain of HIV-1 GP41 by ELISA
[28] = system: Human immunodeficiency virus 1; assay: Antiviral activity against HIV-1 IIIB infected in human MT2 cells assessed as inhibition of viral growth at 5 uM preincubation of compound with 10% HSA; type: functional, organism-based
[29] = Elimination half life in Sprague-Dawley rat at 10 mg/kg,iv administration measured upto 9 days by LC-MS/MS analysis; type: ADME, organism-based; conditions: in vivo, time < 9 day, read-out: beta t1/2
[30] = system: Human immunodeficiency virus 1; assay: Antiviral activity against T20-resistant HIV-1 NL4-3 harboring […] V38E and N42S mutant infected in human MT2 cells assessed as inhibition of viral growth pretreated with virus for 30 mins followed by infection with cells incubated for 72 hrs by ELISA; type: functional, organism-based
[31] = system: Human immunodeficiency virus 1; assay: Antiviral activity against T20-resistant HIV-1 NL4-3 harboring […] N38A and N42T mutant assessed as reduction in viral growth by measuring p24 antigen level incubated for 2 hrs by ELISA; type: functional, organism-based
ACH-2 cell line = assay: Cytotoxicity against chidamide non-reactivated human ACH-2 cell line infected with latent HIV-1 assessed as reduction in cell viability at 1.25 to 5 uM; type: functional, cell-based; conditions: dose 1.25-5 µM
[32] = Volume of distribution at steady state in Sprague-Dawley rat at 10 mg/kg,iv administration measured upto 9 days by LC-MS/MS analysis; type: ADME, organism-based; conditions: in vivo, 216 h, time < 9 day
[33] = Biodistribution in Sprague-Dawley rat intestine assessed as fold increase in AUC at 1 mg/kg,iv administration measured after 12 days by LC-MS/MS analysis; type: ADME, organism-based; conditions: in vivo, 288 h, time 12 day
[34] = Toxicity in Sprague-Dawley rat assessed as change in serum ALT level at 50 mg/kg,iv administration measured upto 6 days; type: organism-based; conditions: in vivo, 144 h, time < 6 day
[35] = Toxicity in BALB/c mouse assessed as change in serum creatinine level at 100 mg/kg,iv administration measured upto 6 days; type: organism-based; conditions: in vivo, 144 h, time < 6 day
[36] = system: Human immunodeficiency virus 1; assay: Antiviral activity against T20-resistant HIV-1 NL4-3 harboring […] V38E and N42S mutant assessed as reduction in viral growth by measuring p24 antigen level incubated for 2 hrs by ELISA; type: functional, organism-based
[37] = Stability in rat plasma assessed as parent compound remaining at 1 ug/ml incubated for 1 hr by LC-MS/MS analysis; type: ADME, cell-free; conditions: at 1 µg/mL, read-out: Stability

CC(=O)NCC(=O)N[C@@]1(C)CCC/C=C\CCC[C@@](C)(C(=O)N[C@@H](Cc2ccc(O)cc2)C(=O)N[C@@H](CC(C)C)C(=O)N[C@@]2(C)CCC/C=C\CCC[C@@](C)(C(=O)N[C@@H](Cc3ccc(O)cc3)C(=O)N[C@@H](Cc3c[nH]c4ccccc34)C(N)=O)NC(=O)[C@H](CC(C)C)NC(=O)[C@H](CC(C)C)NC(=O)[C@H](CC(N)=O)NC2=O)NC(=O)[C@H](CC(C)C)NC(=O)[C@H](C)NC(=O)[C@H](CCC(=O)O)NC1=O (Ac-G[S5]EAL[S5]YL[S5]NLL[S5]YW-NH2; staple (Z) 2-6, 9-13)
fold change (FC) [1]: 10 | Papp at 5 µM [2]: < 0.2 nm/s | fold change (FC) [3]: 5 | clearance [4]: 0.0186 L/h/kg | Activity [5]: Non-Toxic | IC50 [6]: 0.0122 µM | Activity [7]: Non-Toxic | Activity [8]: Non-Toxic | Stability [9]: Stable | Activity [10]: Non-Toxic | IC50 [11]: 0.123 µM | fraction unbound [12]: 0.182 | Activity [13]: Non-Toxic | EC50 [14]: 0.114 µM | Activity [15]: Non-Toxic | remaining at 1 h, 1 ug/ml [16]: 100% | Activity [17]: Non-Toxic | Activity [18]: Non-Toxic | EC50 [19]: 36.7 µM | selectivity ratio [20]: 216 | fold change (FC) [21]: 15 | Activity [22]: Active | deltaH [23]: -2.84 10^4cal/mol | MRT [24]: 89.1 h | fraction unbound [25]: 0.153 | Drug uptake [26]: Active | Activity [27]: Dose-Dependent Effect | Activity [28]: Active | half-life [29]: > 70 h | IC50 [30]: 0.0326 µM | EC50 [31]: 0.0231 µM | Activity (ACH-2 cell line): inactive | Vdss [32]: 3.6489 L/kg | fold change (FC) [33]: 10 | Activity [34]: Non-Toxic | Activity [35]: Non-Toxic | EC50 [36]: 0.0506 µM | remaining at 1 h, 1 ug/ml [37]: > 99%
